This passage reports EC50 and IC50 results from ChEMBL document CHEMBL4431344, “Synthesis of potent and broad genotypically active NS5B HCV non-nucleoside inhibitors binding to the thumb domain allosteric site 2 of the viral polymerase” (Bioorg Med Chem Lett, 2016).

Molecules are shown by their SMILES.

One assay concerns Hepatitis C virus. In words: Antiviral activity against HCV assessed as inhibition of viral RNA replication in replicon cells by luciferase reporter gene assay. The format is functional, Hepacivirus hominis. On the technique in general: In antiviral work, replicon cells carry a viral genome segment that copies itself.
Assay [1] addresses RNA-directed RNA polymerase (Hepacivirus hominis, UniProt O39930). The experiment in a line: Inhibition of HCV NS5B RNA dependent RNA polymerase.
For assay [2], the target named is Genome polyprotein (Hepatitis C virus genotype 1b (strain HC-J4) (HCV), UniProt O92972). The experiment in a line: Inhibition of HCV genotype 1b J4 NS5B RNA dependent RNA polymerase. On the set-up: species or system Hepatitis C virus isolate HC-J4.
The target of assay [3] is Genome polyprotein (Hepatitis C virus genotype 1b (isolate Con1) (HCV), UniProt Q9WMX2). The experiment in a line: Inhibition of HCV genotype 1b Con1 NS5B RNA dependent RNA polymerase.
Chain of Genome polyprotein (Hepatitis C virus genotype 1b (isolate Con1) (HCV), UniProt Q9WMX2) (Q9WMX2 2420-3010 limits assumed): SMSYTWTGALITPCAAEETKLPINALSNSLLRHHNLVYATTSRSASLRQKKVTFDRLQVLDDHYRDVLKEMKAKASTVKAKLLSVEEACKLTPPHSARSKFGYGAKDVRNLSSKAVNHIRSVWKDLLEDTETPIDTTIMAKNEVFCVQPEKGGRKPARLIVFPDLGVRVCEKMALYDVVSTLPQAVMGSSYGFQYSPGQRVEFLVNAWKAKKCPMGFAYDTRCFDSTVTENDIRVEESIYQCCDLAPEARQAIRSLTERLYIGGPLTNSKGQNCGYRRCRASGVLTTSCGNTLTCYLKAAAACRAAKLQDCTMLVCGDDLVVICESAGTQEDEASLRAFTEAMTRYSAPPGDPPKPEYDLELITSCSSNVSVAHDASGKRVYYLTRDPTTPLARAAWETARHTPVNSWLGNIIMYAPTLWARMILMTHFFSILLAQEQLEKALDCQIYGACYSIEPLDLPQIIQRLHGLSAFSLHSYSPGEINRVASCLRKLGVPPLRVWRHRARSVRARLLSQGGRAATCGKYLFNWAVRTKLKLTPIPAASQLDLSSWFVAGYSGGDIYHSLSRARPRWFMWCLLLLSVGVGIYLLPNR

Chain of Genome polyprotein (Hepatitis C virus genotype 1b (strain HC-J4) (HCV), UniProt O92972) (O92972 2420-3010 limits assumed): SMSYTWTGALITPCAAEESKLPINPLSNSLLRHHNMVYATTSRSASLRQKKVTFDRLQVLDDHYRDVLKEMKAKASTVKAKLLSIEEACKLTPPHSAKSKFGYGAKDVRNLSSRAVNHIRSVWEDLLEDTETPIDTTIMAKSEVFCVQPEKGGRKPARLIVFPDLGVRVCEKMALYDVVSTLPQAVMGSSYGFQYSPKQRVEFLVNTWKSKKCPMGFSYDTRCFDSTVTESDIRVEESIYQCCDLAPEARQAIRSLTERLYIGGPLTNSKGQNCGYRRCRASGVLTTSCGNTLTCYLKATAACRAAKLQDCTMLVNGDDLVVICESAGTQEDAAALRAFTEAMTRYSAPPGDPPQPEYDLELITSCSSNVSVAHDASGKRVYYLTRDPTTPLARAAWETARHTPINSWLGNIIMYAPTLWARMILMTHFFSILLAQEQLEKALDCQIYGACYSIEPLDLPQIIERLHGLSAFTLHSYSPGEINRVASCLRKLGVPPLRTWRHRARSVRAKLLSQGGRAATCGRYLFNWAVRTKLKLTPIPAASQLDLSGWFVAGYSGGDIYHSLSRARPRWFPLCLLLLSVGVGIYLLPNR
Chain of RNA-directed RNA polymerase (O39930 whole entry): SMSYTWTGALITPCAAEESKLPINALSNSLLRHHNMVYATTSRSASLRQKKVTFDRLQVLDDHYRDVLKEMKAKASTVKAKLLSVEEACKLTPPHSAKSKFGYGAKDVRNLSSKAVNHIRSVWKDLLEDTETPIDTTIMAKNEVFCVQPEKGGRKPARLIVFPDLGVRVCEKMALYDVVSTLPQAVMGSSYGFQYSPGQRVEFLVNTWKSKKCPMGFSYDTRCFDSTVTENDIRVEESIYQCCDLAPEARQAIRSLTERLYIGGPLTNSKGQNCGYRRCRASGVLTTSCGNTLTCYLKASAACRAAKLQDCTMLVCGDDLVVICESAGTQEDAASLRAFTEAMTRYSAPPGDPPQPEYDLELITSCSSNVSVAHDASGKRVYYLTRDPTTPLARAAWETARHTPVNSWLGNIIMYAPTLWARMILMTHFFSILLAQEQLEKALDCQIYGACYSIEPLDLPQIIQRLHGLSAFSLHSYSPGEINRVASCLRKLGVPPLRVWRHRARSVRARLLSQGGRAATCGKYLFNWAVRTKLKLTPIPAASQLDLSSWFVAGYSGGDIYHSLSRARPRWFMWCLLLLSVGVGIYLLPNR

As to `Cc1ccc(S(=O)(=O)Nc2cc(-c3ccccc3)sc2C(=O)O)c(C)c1`, the 50% effective concentration (EC50) (commonly the concentration needed to bring the measured effect to its halfway point) in the assay on Hepatitis C virus came out at 5000 nM. Besides, in assay [1], the IC50 (in general, the concentration that inhibits the measured activity by half) worked out at 1000 nM.

Consider `Cc1ccc(P(=O)(Nc2cc(-c3ccc(Cl)cc3)sc2C(=O)O)OCC2CCOCC2)c(C)c1` (stereo not given), for which the half-maximal effective concentration (EC50) in the assay on Hepatitis C virus amounted to 320 nM. On Genome polyprotein [2], this compound gave a concentration for half-maximal inhibition (IC50) of 0.154 µM.

As to `COP(=O)(Nc1cc(-c2ccc(Cl)cc2)sc1C(=O)O)c1ccc(Cl)cc1C` (stereo not given), the EC50 in the assay on Hepatitis C virus amounted to 1550 nM. In addition, the IC50 at Genome polyprotein [2] was determined as 0.026 µM.

As to `CCOP(=O)(Nc1cc(-c2ccc(Cl)cc2)sc1C(=O)O)C1CCC(C)CC1` (stereo not given), the EC50 in the assay on Hepatitis C virus was above 8300 nM. On Genome polyprotein [2], the IC50 came out at 3.74 µM.

For the compound `Cc1ccc(P(=O)(Nc2cc(-c3ccc(Cl)cc3)sc2C(=O)O)OC(C)C)c(C)c1` (stereo not given), the EC50 with Hepatitis C virus came out at 2280 nM. The same compound had a 50% inhibitory concentration (IC50) at Genome polyprotein [2] of 0.189 µM.

In the case of `COP(=O)(Nc1cc(-c2ccc(-c3cc4nc(C)ccn4n3)cc2)sc1C(=O)O)c1ccc(C)cc1C` (stereo not given), the EC50 in the assay on Hepatitis C virus was determined as 0.7 nM. The compound further had an IC50 at Genome polyprotein [2] of 0.0078 µM.

Take `Cc1ccc(P(=O)(Nc2cc(-c3ccc(Cl)cc3)sc2C(=O)O)OCCc2ccc(F)cc2)c(C)c1` (stereo not given): the 50% effective concentration (EC50) with Hepatitis C virus came out at 2410 nM. The same compound showed an IC50 against Genome polyprotein [2] of 0.314 µM.

As for `CCOP(=O)(Nc1cc(-c2ccc(Cl)cc2)sc1C(=O)O)c1ccc(Cl)cc1C` (stereo not given), the concentration giving a half-maximal response (EC50) with Hepatitis C virus was determined as 2920 nM. Also, half-maximal inhibition against Genome polyprotein [2] (IC50) was put at 0.081 µM.

In the case of `COP(=O)(Nc1cc(-c2ccc(-c3cc4ncccc4o3)cc2)sc1C(=O)O)c1ccc(C)cc1C` (stereo not given), the EC50 in the assay on Hepatitis C virus is 0.7 nM. The compound also yielded an IC50 against Genome polyprotein [2] of 0.0054 µM.

Turning to `CCCCOP(=O)(Nc1cc(-c2ccc(Cl)cc2)sc1C(=O)O)c1ccc(C)cc1C` (stereo not given), the EC50 with Hepatitis C virus is 2710 nM. The compound further showed an IC50 at Genome polyprotein [2] of 0.17 µM.

In the case of `COP(=O)(Nc1cc(-c2ccc(-c3cc4ccccc4o3)cc2)sc1C(=O)O)c1ccc(C)cc1C` (stereo not given), in the assay on Hepatitis C virus, the EC50 turned out to be 1.7 nM. The same compound had an IC50 against Genome polyprotein [2] of 0.0056 µM.

As to `COP(=O)(Nc1cc(-c2ccc(Cl)cc2)sc1C(=O)O)c1ccc(C)cc1C` (stereo not given), the concentration giving a half-maximal response (EC50) in the assay on Hepatitis C virus turned out to be 660 nM. In addition, on Genome polyprotein [2], the IC50 was found to be 0.021 µM.

For the compound `Cc1ccc(P(=O)(Nc2cc(-c3ccc(Cl)cc3)sc2C(=O)O)OCCC(C)C)c(C)c1` (stereo not given), in the assay on Hepatitis C virus, the concentration for a half-maximal effect (EC50) turned out to be 3560 nM. On Genome polyprotein [2], this compound came in with a half-inhibitory concentration (IC50) of 0.298 µM.

With `COP(=O)(Nc1cc(-c2ccc(Cl)cc2)sc1C(=O)O)c1ccc(Cl)cc1F` (stereo not given), in the assay on Hepatitis C virus, the 50% effective concentration (EC50) worked out at 3350 nM. On Genome polyprotein [2], this compound gave an IC50 of 0.298 µM.

Turning to `COP(=O)(Nc1cc(-c2ccc(-c3cc4ccccc4s3)cc2)sc1C(=O)O)c1ccc(C)cc1C` (stereo not given), in the assay with Hepatitis C virus, the half-maximal effective concentration (EC50) was found to be 23.2 nM. On Genome polyprotein [2], this compound yielded an IC50 of 0.0163 µM.

On to `COP(=O)(Nc1cc(-c2ccc(-c3cc4nc(C)cc(N)n4n3)cc2)sc1C(=O)O)c1ccc(C)cc1C` (stereo not given), for which, in the assay on Hepatitis C virus, the EC50 was 0.5 nM. Besides, the half-maximal inhibitory concentration (IC50) on Genome polyprotein [3] was 9 nM; on Genome polyprotein [2] it was 0.0051 µM.

In the case of `Cc1ccc(P(=O)(Nc2cc(-c3ccc(Cl)cc3)sc2C(=O)O)OCC(C)C)c(C)c1` (stereo not given), in the assay with Hepatitis C virus, the EC50 came out at 3040 nM. Further, at Genome polyprotein [2], the IC50 came to 0.223 µM.

For the compound `COP(=O)(c1ccc(C)cc1C)N(c1cc(-c2ccc(F)cc2)sc1C(=O)O)C(C)C` (stereo not given), the 50% effective concentration (EC50) in the assay with Hepatitis C virus is 4190 nM. For the same compound, the midpoint of inhibition on Genome polyprotein [2], the IC50, lay at 0.517 µM.

Turning to `Cc1ccc(P(=O)(Nc2cc(-c3ccc(Cl)cc3)sc2C(=O)O)OCc2cc3ccccc3o2)c(C)c1` (stereo not given), in the assay on Hepatitis C virus, the 50% effective concentration (EC50) is 2700 nM. The compound further registered an IC50 against Genome polyprotein [2] of 0.425 µM.

In the case of `CCOP(=O)(Nc1cc(-c2ccccc2)sc1C(=O)O)C1CCC(C)CC1` (stereo not given), the EC50 in the assay with Hepatitis C virus was above 8300 nM. This compound showed a 50% inhibitory concentration (IC50) against Genome polyprotein [2] above 10 µM.

`C=CP(=O)(Nc1cc(-c2ccc(Cl)cc2)sc1C(=O)O)OCC` (stereo not given): the half-maximal effective concentration (EC50) in the assay with Hepatitis C virus is above 8300 nM. Also, the 50% inhibitory concentration (IC50) on Genome polyprotein [2] was above 10000 µM.

Regarding `COP(=O)(Nc1cc(-c2ccc(C#CC3CC3)cc2)sc1C(=O)O)c1ccc(C)cc1C` (stereo not given), the 50% effective concentration (EC50) with Hepatitis C virus stood at 2470 nM. Moreover, at Genome polyprotein [2], the midpoint of inhibition, the IC50, lay at 0.0458 µM.

`CCCOP(=O)(Nc1cc(-c2ccc(Cl)cc2)sc1C(=O)O)c1ccc(C)cc1C` (stereo not given): in the assay on Hepatitis C virus, the concentration for a half-maximal effect (EC50) is 3530 nM. In addition, the IC50 against Genome polyprotein [2] came to 0.147 µM.

In the case of `COP(=O)(Nc1cc(-c2ccc(C#Cc3ccsc3)cc2)sc1C(=O)O)c1ccc(C)cc1C` (stereo not given), the EC50 in the assay on Hepatitis C virus worked out at 4.8 nM. The same compound showed an IC50 against Genome polyprotein [2] of 0.0092 µM.

As for `CCOP(=O)(Nc1cc(-c2ccc(Cl)cc2)sc1C(=O)O)C1CC=C(C)CC1` (stereo not given), in the assay on Hepatitis C virus, the EC50 was above 8300 nM. Further, the IC50 on Genome polyprotein [2] stood at 1.13 µM.

As to `COP(=O)(Nc1cc(-c2ccc(F)cc2)sc1C(=O)O)c1ccc(C)cc1C` (stereo not given), the half-maximal effective concentration (EC50) in the assay with Hepatitis C virus worked out at 2140 nM. On Genome polyprotein [2], this compound had an IC50 of 0.118 µM.

Consider `COP(=O)(c1ccc(C)cc1C)N(C)c1cc(-c2ccc(Cl)cc2)sc1C(=O)O` (stereo not given), for which the 50% effective concentration (EC50) in the assay on Hepatitis C virus amounted to 2820 nM. The compound also yielded a half-inhibitory concentration (IC50) on Genome polyprotein [2] of 0.059 µM.

As to `COCCOP(=O)(Nc1cc(-c2ccc(Cl)cc2)sc1C(=O)O)c1ccc(C)cc1C` (stereo not given), in the assay with Hepatitis C virus, the EC50 amounted to 2660 nM. For the same compound, the concentration for half-maximal inhibition (IC50) on Genome polyprotein [2] worked out at 0.135 µM.

As for `CC(C)N(c1cc(-c2ccccc2)sc1C(=O)O)C(=O)[C@H]1CC[C@H](C)CC1`, the EC50 in the assay on Hepatitis C virus was 369 to 600 nM. For the same compound, the values for the concentration for half-maximal inhibition (IC50) (in assay [1]; against Genome polyprotein [2]) were 1500 nM and 0.035 µM, respectively.
